In EP0674651B1, “SUBSTITUTED 6-AZAANDROSTENONES” (priority 1992, dated 1994):

Key:
[1] = target: T1, human type 2 5α-reductase (Homo sapiens, UniProt P31213); assay: 5α-reductase in vitro inhibitory activity, human type 2
T1 sequence (P31213 1-254): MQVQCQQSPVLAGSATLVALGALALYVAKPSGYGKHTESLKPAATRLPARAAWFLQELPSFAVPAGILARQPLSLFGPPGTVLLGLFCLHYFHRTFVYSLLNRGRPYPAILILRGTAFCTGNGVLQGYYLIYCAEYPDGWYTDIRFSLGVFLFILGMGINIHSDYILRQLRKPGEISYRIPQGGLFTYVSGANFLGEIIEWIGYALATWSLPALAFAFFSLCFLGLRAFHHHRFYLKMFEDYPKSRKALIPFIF

[2] = target: T2, human type 1 5α-reductase (Homo sapiens, UniProt P18405); assay: 5α-reductase in vitro inhibitory activity, human type 1
T2 sequence (P18405 1-259): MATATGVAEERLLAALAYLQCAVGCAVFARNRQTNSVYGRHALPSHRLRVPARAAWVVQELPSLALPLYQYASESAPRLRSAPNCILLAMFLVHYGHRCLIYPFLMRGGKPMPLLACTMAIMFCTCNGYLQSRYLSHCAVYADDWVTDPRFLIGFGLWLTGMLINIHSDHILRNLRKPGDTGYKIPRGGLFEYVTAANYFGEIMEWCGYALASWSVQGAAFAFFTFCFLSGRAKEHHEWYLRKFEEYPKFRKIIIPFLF
Procedure: (§1) Microsomes were prepared by homogenization of the tissue or cells, followed by differential centrifugation of the homogenate. […] Corresponding incubations were carried out with no test compound as a control study.
For type 2 IC50 measurements, assay components except testosterone were preincubated for 20 minutes at pH 6.0, and following the addition of 8nM testosterone the assays were allowed to proceed for 20-40 minutes. The percentage of conversion of testosterone to DHT in the presence of test compounds compared to the corresponding conversion in the control study was estimated using high pressure liquid chromatography (HPLC) with radiochemical detection.

[3] = target: Rat Prostatic 5α-reductase; assay: 5α-reductase in vitro inhibitory activity, rat prostatic; details: read-out: IC50 Rat Prostatic; microsomes derived from prostate tissue from the rat
Procedure: as §1
The percentage of conversion of testosterone to DHT in the presence of test compounds compared to the corresponding conversion in the control study was estimated using high pressure liquid chromatography (HPLC) with radiochemical detection.

[4] = literature reports; cited from earlier work
[5] = target: T3, porcine granulosa cell 3β-hydroxy-Δ^5-steroid dehydrogenase / 3-keto-Δ^5-steroid isomerase (3βHSD) (Sus scrofa, UniProt Q9N119); details: cited from earlier work
T3 construct: host or cells: porcine granulosa cells
T3 sequence (Q9N119 1-373): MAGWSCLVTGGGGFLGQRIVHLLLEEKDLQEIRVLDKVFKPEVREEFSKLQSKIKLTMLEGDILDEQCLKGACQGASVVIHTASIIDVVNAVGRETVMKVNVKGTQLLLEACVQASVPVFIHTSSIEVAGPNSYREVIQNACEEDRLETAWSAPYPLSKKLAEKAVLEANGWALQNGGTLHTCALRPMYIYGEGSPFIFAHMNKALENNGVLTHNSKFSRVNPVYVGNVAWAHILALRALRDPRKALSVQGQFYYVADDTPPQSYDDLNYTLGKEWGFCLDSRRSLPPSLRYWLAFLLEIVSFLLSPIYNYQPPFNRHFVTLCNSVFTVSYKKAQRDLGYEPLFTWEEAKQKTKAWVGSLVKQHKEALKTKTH

[6] = target: T4, bovine adrenal 3β-hydroxy-Δ^5-steroid dehydrogenase / 3-keto-Δ^5-steroid isomerase (3βHSD) (Bos taurus, UniProt P14893); details: cited from earlier work
T4 construct: host or cells: bovine adrenal
T4 sequence (P14893 1-373): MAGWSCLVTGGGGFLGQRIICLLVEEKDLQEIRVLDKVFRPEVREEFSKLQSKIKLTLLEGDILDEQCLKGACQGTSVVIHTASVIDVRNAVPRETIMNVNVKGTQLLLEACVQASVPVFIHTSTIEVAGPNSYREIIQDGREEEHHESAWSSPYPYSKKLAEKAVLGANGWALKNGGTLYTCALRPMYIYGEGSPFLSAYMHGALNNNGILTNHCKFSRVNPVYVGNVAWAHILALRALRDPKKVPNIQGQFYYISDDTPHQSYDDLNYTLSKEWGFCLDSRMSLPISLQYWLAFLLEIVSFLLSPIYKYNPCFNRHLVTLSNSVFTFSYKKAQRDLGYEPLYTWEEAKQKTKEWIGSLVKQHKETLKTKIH

| SMILES | IC50 [1] [nM] | IC50 [2] [nM] | IC50 [3] [nM] | hepatotoxicity [4] | inhibition of 3βHSD [5] | inhibition of 3βHSD [6] |
| --- | --- | --- | --- | --- | --- | --- |
| Cc1cc(Br)cc(C)c1NC(=O)[C@H]1CC[C@H]2[C@@H]3CNC4=CC(=O)CC[C@]4(C)[C@H]3CC[C@]12C [Compound 46, 17β-N-(2,6-Dimethyl-4-bromo)phenyl-carbamoyl-6-azaandrost-4-en-3-one] | < 10 | 10 to 100 | < 10 |  |  |  |
| CC(C)(C)c1ccc(C(C)(C)C)c(NC(=O)C2CCC3C4CNC5=CC(=O)CCC5(C)C4CCC23C)c1 (stereo not drawn) [Compound 10, 17β-N-(2,5-Di-t-butyl)phenyl-carbamoyl-6-azaandrost-4-en-3-one] | < 10 | < 10 | 10 to 100 |  |  |  |
| Cc1cc(C(C)(C)C)cc(C)c1NC(=O)[C@H]1CC[C@H]2[C@@H]3CNC4=CC(=O)CC[C@]4(C)[C@H]3CC[C@]12C [Compound 48, 17β-N-(2,6-Dimethyl-4-t-butyl)phenyl-carbamoyl-6-azaandrost-4-en-3-one] | < 10 | < 10 | 10 to 100 |  |  |  |
| CC(C)(C)C1CCC(NC(=O)[C@H]2CC[C@H]3[C@@H]4CNC5=CC(=O)CC[C@]5(C)[C@H]4CC[C@]23C)CC1 (stereo partly drawn) [Compound 51, 17β-N-(4-t-Butyl)cyclohexyl-carbamoyl-6-azaandrost-4-en-3-one] | 10 to 100 | > 100 | > 100 |  |  |  |
| C[C@]12CC[C@H]3[C@@H](CNC4=CC(=O)CC[C@@]43C)[C@@H]1CC[C@@H]2C(=O)CC(c1ccccc1)c1ccccc1 [Compound 43, 17β-(1-Oxo-3.3-diphenylpropyl)-6-azaandrost-4-en-3-one] | < 10 | < 10 | > 100 |  |  |  |
| CCN(CC)C(=O)[C@H]1CC[C@H]2[C@@H]3CC[C@H]4N(C)C(=O)CC[C@]4(C)[C@H]3CC[C@]12C [Compound 4-MA] |  |  |  | hepatotoxicity | potent inhibition | potent inhibition |

Further lines, with some results ahead:

| IC50 [1] [nM] | IC50 [2] [nM] | IC50 [3] [nM] | SMILES | hepatotoxicity [4] | inhibition of 3βHSD [5] | inhibition of 3βHSD [6] |
| --- | --- | --- | --- | --- | --- | --- |
| < 10 | 10 to 100 | < 10 | C[C@]12CC[C@H]3[C@@H](CNC4=CC(=O)CC[C@@]43C)[C@@H]1CC[C@@H]2C(=O)NCC(c1ccccc1)c1ccccc1 [Compound 22, 17β-N-(2,2-Diphenyl)ethyl-carbamoyl-6-azaandrost-4-en-3-one] |  |  |  |
| < 10 | 10 to 100 | > 100 | CC(C)c1cccc(C(C)C)c1NC(=O)[C@H]1CC[C@H]2[C@@H]3CNC4=CC(=O)C=C[C@]4(C)[C@H]3CC[C@]12C [Compound 93, 17β-N-(2,6-Di-i-propyl)phenyl-carbamoyl-6-azaandrost-1,4-dien-3-one] |  |  |  |
| < 10 | 10 to 100 | > 100 | C[C@]12CC[C@H]3[C@@H](CNC4=CC(=O)CC[C@@]43C)[C@@H]1CC[C@@H]2COC(=O)C12CC3CC(CC(C3)C1)C2 [Compound 38, 17β-Hydroxymethyl-(1-adamantylcarboxylate)-6-azaandrost-4-en-3-one] |  |  |  |
| 10 to 100 | > 100 | 10 to 100 | CC(C)Oc1ccc(C(=O)[C@H]2CC[C@H]3[C@@H]4CNC5=CC(=O)CC[C@]5(C)[C@H]4CC[C@]23C)cc1 [Compound 33, 17β-(1-Oxo-1 (4-isopropoxyphenyl)methyl)-6-azaandrost-4-en-3-one] |  |  |  |
